A word on the EC50: it is the concentration that produces a half-maximal response. A high value points to a need for much substance.

Assay [1] addresses T1, P2Y12 receptor (P2Y12R) (Homo sapiens, UniProt Q9H244). Put plainly: cAMP accumulation assay, rightward shift of 2-methylthio-ADP curve. In kind it is cell-based.
Assay [2] deals with T1, P2Y12 receptor (P2Y12R). Put plainly: inhibition of forskolin-induced cAMP formation. In kind it is cell-based.

T1 sequence (Q9H244 whole entry): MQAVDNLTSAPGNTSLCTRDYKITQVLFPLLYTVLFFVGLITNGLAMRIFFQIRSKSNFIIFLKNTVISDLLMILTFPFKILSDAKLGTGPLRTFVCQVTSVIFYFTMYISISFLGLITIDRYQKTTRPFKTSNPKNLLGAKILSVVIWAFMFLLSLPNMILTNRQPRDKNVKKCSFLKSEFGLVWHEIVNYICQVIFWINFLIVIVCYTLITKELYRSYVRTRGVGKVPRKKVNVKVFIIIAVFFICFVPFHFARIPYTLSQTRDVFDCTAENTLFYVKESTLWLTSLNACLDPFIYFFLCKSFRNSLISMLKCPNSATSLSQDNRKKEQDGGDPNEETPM

With `Nc1c(S(=O)(=O)O)cc(Nc2ccc(Nc3ccccc3)c(S(=O)(=O)O)c2)c2c1C(=O)c1ccccc1C2=O` [PSB-0739], the Kb on P2Y12 receptor (P2Y12R) [1] is 0.0794 nM.
Turning to `CSc1nc(N)c2ncn([C@@H]3O[C@H](COP(=O)(O)OP(=O)(O)O)[C@@H](O)[C@H]3O)c2n1` [2-methylthio-ADP], the concentration for a half-maximal effect (EC50) at P2Y12 receptor (P2Y12R) [2] was 0.26 nM. This counts as sub-nanomolar.

Source of the values: publication PMC4148180 (Neurobiology of Disease, 2014).
